What all share (assay type): physicochemical
The nature of data set [1]: solubility in simulated intestinal fluid (FaSSIF, FeSSIF). The note with it: compared with the free base.
The next data set can be described thus: solubility in water. The note with it: compared with the free base.
Data set [2] is described as follows: physical and chemical stability under high humidity and illumination. As to conditions: compared with free base.
Data set [3] can be described thus: hygroscopicity and crystalline form after moisture absorption.

As to `CC1=Nc2c(F)cc(-c3nc(Nc4ccc(C5CCN(C)CC5)cn4)ncc3F)cc2C12CCCC2.O=C(O)/C=C/C(=O)O` [fumarate, fumarate of 5-fluoro-4-(7′-fluoro-2′-methylspiro[cyclopentane-1,3′-indol]-5′-yl)-N-(5-(1-methylpiperidin-4-yl)pyridin-2-yl)pyrimidin-2-amine], in data set [1], the “solubility in fasted state simulated intestinal fluid (FaSSIF)” value is reported as “higher solubility”. For the same compound, in the data set “solubility in water”, the solubility in water entry is given as “higher solubility”. In data set [2], the “physical and chemical stability” value is “better physical and chemical stability”. Further, the crystalline form stability result in data set [3] (after moisture absorption) was “stable in crystalline form”. Further, the hygroscopicity result in data set [3] (compared with the free base) is recorded as “low hygroscopicity comparable to the free base”.

These data come from patent US20220315532A1, “METHODS FOR PREPARING CDK4/6 INHIBITOR AND SALT AND INTERMEDIATE THEREOF” (Gan & Lee Pharmaceuticals Co., Ltd., priority 2019, published 2022).
